Measurements published in publication PMC10850954, “HDAC6/aggresome processing pathway importance for inflammasome formation is context-dependent” (The Journal of Biological Chemistry, 2024).

Tests used:
HDAC6 [1] = biological target: T1, HDAC6 (Homo sapiens, UniProt Q9UBN7); design: endogenous in cells; method as in PMID 37481141; details: THP-1 cells; cited from earlier work
T1 sequence (Q9UBN7 1-1215): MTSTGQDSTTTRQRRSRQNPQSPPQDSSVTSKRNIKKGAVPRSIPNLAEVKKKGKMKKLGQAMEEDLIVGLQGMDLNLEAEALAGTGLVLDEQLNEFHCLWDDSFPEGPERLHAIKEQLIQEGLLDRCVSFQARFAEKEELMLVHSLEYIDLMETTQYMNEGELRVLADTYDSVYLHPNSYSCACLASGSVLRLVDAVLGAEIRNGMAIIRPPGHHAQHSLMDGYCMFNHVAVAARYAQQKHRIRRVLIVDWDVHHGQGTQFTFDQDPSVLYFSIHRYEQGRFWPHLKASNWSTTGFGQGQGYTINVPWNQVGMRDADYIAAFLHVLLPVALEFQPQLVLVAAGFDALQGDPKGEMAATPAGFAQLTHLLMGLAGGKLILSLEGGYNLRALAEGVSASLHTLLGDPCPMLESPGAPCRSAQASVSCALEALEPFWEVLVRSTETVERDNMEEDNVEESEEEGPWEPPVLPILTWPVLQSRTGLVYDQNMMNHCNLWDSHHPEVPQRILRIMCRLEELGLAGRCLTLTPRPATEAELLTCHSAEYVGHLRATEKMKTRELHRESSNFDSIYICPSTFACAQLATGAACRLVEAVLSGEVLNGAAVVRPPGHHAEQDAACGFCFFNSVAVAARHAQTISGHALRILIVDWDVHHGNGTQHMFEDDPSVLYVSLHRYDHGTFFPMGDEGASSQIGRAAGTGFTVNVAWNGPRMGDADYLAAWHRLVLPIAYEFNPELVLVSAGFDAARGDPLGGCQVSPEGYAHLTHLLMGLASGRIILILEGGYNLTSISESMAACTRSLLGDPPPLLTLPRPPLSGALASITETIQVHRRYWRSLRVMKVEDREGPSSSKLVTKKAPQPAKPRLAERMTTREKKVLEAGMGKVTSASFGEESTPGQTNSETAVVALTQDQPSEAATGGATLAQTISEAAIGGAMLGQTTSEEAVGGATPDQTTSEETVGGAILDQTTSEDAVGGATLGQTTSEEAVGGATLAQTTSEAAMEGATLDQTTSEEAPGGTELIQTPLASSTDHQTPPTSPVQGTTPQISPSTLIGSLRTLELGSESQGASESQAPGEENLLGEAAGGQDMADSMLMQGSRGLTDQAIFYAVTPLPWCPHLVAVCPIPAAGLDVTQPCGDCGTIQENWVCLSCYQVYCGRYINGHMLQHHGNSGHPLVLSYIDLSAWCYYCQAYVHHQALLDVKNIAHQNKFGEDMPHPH

HDAC6 [2] = biological target: T1, HDAC6; design: method as in PMID 26471297; details: BMDMs; cited from earlier work
NLRP3 inflammasome = assay: IL-1β release in THP-1 cells after nigericin stimulation; type: cell-based, human; details: dTAG 1 μM
Protocol: B, establishment of a THP-1 F10-FKBP cell line with degradable DARPin F10. Immunoblotting with lysates of THP-1 F10-FKBP cells treated at the indicated concentration with dTAG (for 6 h). […] The membrane was probed with antibodies against actin as loading control and F10 (HA-F10-FKBP ^F36V, detected with anti-HA). C, IL-1β release under various treatments in THP-1 F10-FKBP cells at 3 h post-nigericin stimulation. Cells were treated as indicated in the scheme at the top. […] One-way ANOVA test was applied for statistical analysis. ∗∗∗∗p <0.0001. […] D, IL-1β release from 0 h to 3.5 h after nigericin treatment in THP-1 or THP-1-F10-FKBP cells. Experimental set-up was as in (B) and IL-1β concentration was monitored at timepoint 0, 0.5, 1.5, and 3.5 h post nigericin treatment. Two-way ANOVA tests were applied, and comparison was performed within each timepoint between with and without dTAG group. ∗∗p< 0.01. Experimental setup as in (C).
Human IL-1β and IL-18 were determined with Cisbio HTRF Cisbio Human IL1β (#62HIL1BPET) and Human IL18 (#62HIL18PEG) protocols. All the data were from 3 or 4 independent biological replicates.
For BMDM cells, 1.5 × 10^6 cells per well were seeded in six-well plates. After priming with 1 μg/ml LPS (Invivogen #tlrl-b5lps), cells were challenged with 200 μg/ml MSU crystals (Invivogen #tlrl-msu-25) for 6 h or 20 μM nigericin (Sigma-Aldrich #N7143-5MG) for 30 min. […]

HA-F10-FKBP F36V = biological target: T2, HA-F10-FKBP F36V (Homo sapiens, UniProt P62942, F37V); assay: dTAG-induced degradation of DARPin F10-FKBPF36V in THP-1 cells (immunoblot); type: cell-based; details: F10-FKBPF36V THP-1 cells, within 6 h of dTAG addition
T2 construct: expressed in transfected cells; host or cells: THP-1, lentiviral transduction, single-cell clone
T2 sequence (P62942 2-108 F37V limits assumed): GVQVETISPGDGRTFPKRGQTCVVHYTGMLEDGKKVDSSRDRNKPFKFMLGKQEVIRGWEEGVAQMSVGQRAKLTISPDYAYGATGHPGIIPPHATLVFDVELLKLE
T2 sequence (Q96SW2 whole entry, further chain): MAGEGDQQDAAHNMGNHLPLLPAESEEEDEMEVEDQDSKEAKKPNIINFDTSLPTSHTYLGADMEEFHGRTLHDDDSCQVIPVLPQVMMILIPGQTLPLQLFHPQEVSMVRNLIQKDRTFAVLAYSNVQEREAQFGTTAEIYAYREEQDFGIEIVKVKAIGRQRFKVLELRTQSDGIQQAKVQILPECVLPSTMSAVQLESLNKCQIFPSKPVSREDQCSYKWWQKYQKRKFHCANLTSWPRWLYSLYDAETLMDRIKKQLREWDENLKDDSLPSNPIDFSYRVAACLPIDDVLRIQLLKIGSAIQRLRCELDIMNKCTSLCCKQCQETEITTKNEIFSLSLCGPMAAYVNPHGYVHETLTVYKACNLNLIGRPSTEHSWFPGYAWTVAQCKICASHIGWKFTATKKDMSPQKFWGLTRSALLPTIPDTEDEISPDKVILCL
Protocol: B, establishment of a THP-1 F10-FKBP cell line with degradable DARPin F10. Immunoblotting with lysates of THP-1 F10-FKBP cells treated at the indicated concentration with dTAG (for 6 h). […] The membrane was probed with antibodies against actin as loading control and F10 (HA-F10-FKBP ^F36V, detected with anti-HA).
The membrane was blocked with 5% milk-TBS, and then incubated with primary antibodies overnight at 4 °C. The signal was developed with HRP-conjugated secondary antibodies and Amersham ECL Western Blotting Detection Reagent (Cytiva#RPN2106).

For CN1CCc2c(c3ccccc3n2Cc2ccc(C(=O)NO)cc2)C1 [Tubastatin A], the IL-1β release (HDAC6 [1]) is listed as “reduced IL-1β release” and the mIL-1β level (HDAC6 [2]) is listed as “did not impact the mIL-1β level”.
For CC[C@H](C(=O)N1CCCC[C@H]1C(=O)O[C@H](CCc1ccc(OC)c(OC)c1)c1ccccc1OCC(=O)NCCCCCCOc1cccc2c1C(=O)N(C1CCC(=O)NC1=O)C2=O)c1cc(OC)c(OC)c(OC)c1 (some centres unmarked) [dTAG], the IL-1β release (NLRP3 inflammasome; F10-FKBPF36V THP-1 cells, PMA 0.5 μM, nigericin 15 μM, compared to WT THP-1) was “partial, but significant, recovery”, the IL-1β release (NLRP3 inflammasome; parental WT THP-1, PMA 0.5 μM 3 h, nigericin 15 μM 3 h, MCC950 10 μM) was “comparable” and the “degradation of DARPin F10” value (HA-F10-FKBP F36V) was “efficiently degraded”.
